Values joined by “and” are separate entries in the source; they are usually repeats but may differ in a detail not shown here. Equal entries are not always repeated. Where two headings read alike, the source gives them in different places.
Key:
NAMPT = molecular target: T1, NAMPT (Homo sapiens, UniProt P43490); assay: Biochemical inhibition assay: NAMPT enzymatic reaction, NMN quantified by mass spectrometry; details: read-out: Biochem IC50
T1 construct: His tag; host or cells: E. coli
In short: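 Inhibition of E. coli-expressed His-tagged human NAMPT, measured as NMN formation by mass spectrometry after a 30 min room-temperature reaction containing 1 μM NAM, 100 μM PRPP and 2.5 mM ATP.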

A2780 cells = assay: In-vitro cell proliferation assay (SRB), A2780 cells; format: cell-based; details: A2780 cells, 72 hours, read-out: A2780 IC50
In short: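 SRB read-out: 6% TCA fix 1 h at 4° C., stain, Tris solubilize, A570. Media-only background subtracted; % inhibition from two compound concentrations.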

[1] = Homo sapiens, A2780, 72 h, SRB assay

T1 sequence (P43490 whole entry): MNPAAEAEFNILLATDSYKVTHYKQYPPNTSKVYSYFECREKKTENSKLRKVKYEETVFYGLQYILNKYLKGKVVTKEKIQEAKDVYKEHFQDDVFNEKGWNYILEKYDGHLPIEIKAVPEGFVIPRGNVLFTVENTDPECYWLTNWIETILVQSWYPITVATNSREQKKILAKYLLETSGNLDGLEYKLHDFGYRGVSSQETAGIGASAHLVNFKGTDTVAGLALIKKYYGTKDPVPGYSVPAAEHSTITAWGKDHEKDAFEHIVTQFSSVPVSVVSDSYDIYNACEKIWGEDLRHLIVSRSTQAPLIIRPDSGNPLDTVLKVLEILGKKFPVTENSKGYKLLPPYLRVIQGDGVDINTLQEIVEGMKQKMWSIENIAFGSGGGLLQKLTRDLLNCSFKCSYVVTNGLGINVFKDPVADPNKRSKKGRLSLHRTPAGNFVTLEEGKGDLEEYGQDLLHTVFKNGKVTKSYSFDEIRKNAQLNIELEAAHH

| SMILES | IC50 (NAMPT; NAMPT enzymatic reaction) [nM] | IC50 (A2780 cells; Homo sapiens, A2780, 72 h, SRB) [nM] | IC50 (A2780 cells; [1]) [nM] | IC50 (NAMPT; NAMPT enzymatic assay) | IC50 (A2780 cells; SRB) [nM] |
| --- | --- | --- | --- | --- | --- |
| Cc1cc(S(=O)(=O)c2ccc(CNC(=O)c3ccc4nccn4c3)cc2)ccc1F [N-({4-[(4-fluoro-3-methylbenzene)sulfonyl]phenyl}methyl)imidazo[1,2-a]pyridine-6-carboxamide] | 23.5 | 7.14 |  |  |  |
| O=C(NCc1ccc(S(=O)(=O)Nc2cccc3cccnc23)cc1)c1cc2cnccc2[nH]1 [N-({4-[(quinolin-8-yl)sulfamoyl]phenyl}methyl)-1H-pyrrolo[3,2-c]pyridine-2-carboxamide] | 75 |  | 1480 |  |  |
| COc1cc(C)cc(S(=O)(=O)c2ccc(CNC(=O)c3cc4cnccc4[nH]3)cc2)c1OC [N-({4-[(2,3-dimethoxy-5-methylbenzene)sulfonyl]phenyl}methyl)-1H-pyrrolo[3,2-c]pyridine-2-carboxamide] |  | 2 |  | 10 nM |  |
| O=C(NCc1ccc(S(=O)(=O)c2ccc(C(F)(F)F)c(Cl)c2)cc1)c1cc2ccncc2s1 |  | 2.3 |  | 3 nM |  |
| O=C(NCc1ccc(S(=O)(=O)c2cccc(N3CCCCC3)c2)cc1)c1cnc2nccn2c1 |  | 11.4 |  | 5.1 nM and 1.2 nM | 5.7 |
| COc1ccc(C(F)(F)F)cc1S(=O)(=O)c1ccc(CNC(=O)c2cnc3nccn3c2)cc1 |  | 3.6 |  | 6.8 nM |  |
| COc1cncc(S(=O)(=O)c2ccc(CNC(=O)c3ccc4nccn4c3)cc2)c1 [N-{[4-(5-methoxypyridine-3-sulfonyl)phenyl]methyl}imidazo[1,2-a]pyridine-6-carboxamide] |  | 3.4 |  | 9 nM |  |
| O=C(NCc1ccc(S(=O)(=O)c2cccc(Oc3ccc(F)cc3)c2)cc1)c1ccc2nccn2c1 |  | 34 |  | 15.1 nM |  |
| O=C(NCc1ccc(S(=O)(=O)c2ccc(-n3cccn3)c(F)c2)cc1)c1cnc2[nH]ncc2c1 |  | 3.3 |  | 13.1 nM |  |
| O=C(NCc1ccc(S(=O)(=O)c2ccccc2C(F)(F)F)cc1)c1cnc2nccn2c1 |  | 100 to 1000 |  | 10 nM |  |
| CN(C)c1ccc(S(=O)(=O)c2ccc(CNC(=O)c3cc4ccncc4s3)cc2)cn1 [N-({4-[6-(dimethylamino)pyridine-3-sulfonyl]phenyl}methyl)thieno[2,3-c]pyridine-2-carboxamide] |  | 0.6 |  | 1 nM |  |
| Cn1cc2ccc(S(=O)(=O)c3ccc(CNC(=O)c4ccc5nccn5c4)cc3)cc2n1 [N-{[4-(2-methyl-2H-indazole-6-sulfonyl)phenyl]methyl}imidazo[1,2-a]pyridine-6-carboxamide] |  | 1.7 |  | 1.9 nM |  |
| O=C(NCc1ccc(S(=O)(=O)c2cccc(F)c2)cc1)c1ccc2nccn2c1 [N-({4-[(3-fluorobenzene)sulfonyl]phenyl}methyl)imidazo[1,2-a]pyridine-6-carboxamide] | 22.1 | 12.2 |  |  |  |
| O=C(NCc1ccc(S(=O)(=O)c2ccccc2)cc1)c1ccc2cnccc2n1 [N-{[4-(benzenesulfonyl)phenyl]methyl}-1,6-naphthyridine-2-carboxamide] |  | > 10000 |  | 2850 nM |  |
| O=C(NCc1ccc(S(=O)(=O)c2cccc(N3CCCCC3)c2)cc1)c1cc2ccncc2s1 |  | 13.6 |  | 16.7 nM |  |
| CCS(=O)(=O)c1cccc(S(=O)(=O)c2ccc(CNC(=O)c3cc4ccncc4s3)cc2)c1 |  | 5.4 |  | 2.8 nM |  |
| O=C(NCc1ccc(S(=O)(=O)c2ccc(C(F)(F)F)cc2F)cc1)c1cc2cnccc2[nH]1 [N-[(4-{[2-fluoro-4-(trifluoromethyl)benzene]sulfonyl}phenyl)methyl]-1H-pyrrolo[3,2-c]pyridine-2-carboxamide] |  | 28.1 |  | 80.2 nM |  |
| O=C(NCc1ccc(S(=O)(=O)N2CCCCC2)cc1)c1ccc2nccn2c1 [N-{[4-(piperidine-1-sulfonyl)phenyl]methyl}imidazo[1,2-a]pyridine-6-carboxamide] | 18 |  | 1160 |  |  |
| CCOc1cccc(S(=O)(=O)c2ccc(CNC(=O)c3cc4ccncc4o3)cc2)c1 [N-({4-[(3-ethoxybenzene)sulfonyl]phenyl}methyl)furo[2,3-c]pyridine-2-carboxamide] | 6.8 | 11 |  |  |  |

Reference: US12336981B2, “Compounds and compositions for the inhibition of NAMPT” (Valo Health, Inc., priority 2010, dated 2025)
